Assay results reported in patent US10597388B2, “Pyridazinone herbicides” (FMC CORPORATION, priority 2014, dated 2020).

Tests used:
Assay in all cases: Test C greenhouse herbicide test, pre- and postemergence
Assay type in all cases: in vivo
[1] = tested on: ragweed (common ragweed, Ambrosia elatior)
In short: (§1)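 Pre- and postemergence greenhouse screen; values are visual control ratings, 0 meaning no effect and 100 complete kill, assigned relative to untreated plants after 13 to 15 d.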

[2] = tested on: crabgrass, large (large crabgrass, Digitaria sanguinalis)
In short: as §1

[3] = tested on: wheat (winter wheat, Triticum aestivum)
In short: as §1

soybean (Glycine max) = tested on: soybean (Glycine max)
In short: as §1

[4] = tested on: nutsedge, yellow (yellow nutsedge, Cyperus esculentus)
In short: as §1

[5] = tested on: barnyardgrass (Echinochloa crus-galli)
In short: as §1

[6] = tested on: foxtail, giant (giant foxtail, Setaria faberii)
In short: as §1

[7] = tested on: waterhemp (common waterhemp, Amaranthus rudis)
In short: as §1

[8] = tested on: oilseed rape (Brassica napus)
In short: as §1

[9] = tested on: galium (catchweed bedstraw, Galium aparine)
In short: as §1

[10] = tested on: lambsquarters (Chenopodium album)
In short: as §1

[11] = tested on: johnsongrass (Sorghum halepense)
In short: as §1

[12] = Postemergence, 31 g ai/ha, scale 0 to 100 (0 no effect, 100 complete control)
[13] = Postemergence, 125 g ai/ha, scale 0 to 100, 0 is no effect, 100 is complete control
[14] = Postemergence, 250 g ai/ha, scale 0 to 100, 0 no effect, 100 complete control, 13 to 15 d
[15] = Preemergence, 31 g ai/ha, scale 0 to 100, 0 is no effect, 100 is complete control
[16] = Preemergence, 62 g ai/ha, scale 0 to 100, 0 is no effect, 100 is complete control
[17] = Preemergence, 125 g ai/ha, scale 0 to 100, 0 is no effect, 100 is complete control
[18] = Preemergence, 250 g ai/ha, scale 0 to 100, 0 no effect, 100 complete control
[19] = postemergence, 62 g ai/ha, scale 0 to 100, 0 no effect, 100 complete control

Cc1ccc2ccccc2c1-c1c(O)c(C(F)(F)F)nn(C)c1=O [Compound 102]
Plant response rating, Ragweed [1, 12]: 95
Plant response rating, Ragweed [1, 13]: 100
Plant response rating, Ragweed [1, 14]: 100
Plant response rating, Ragweed [1, 15]: 70
Plant response rating, Ragweed [1, 16]: 75
Plant response rating, Ragweed [1, 17]: 90
Ragweed plant response rating [1, 18]: 100
Plant response rating, Crabgrass, Large [2, 12]: 5
Plant response rating, Crabgrass, Large [2, 13]: 20
Plant response rating, Crabgrass, Large [2, 14]: 15
Plant response rating, Crabgrass, Large [2, 15]: 0
Plant response rating, Crabgrass, Large [2, 16]: 5
Plant response rating, Crabgrass, Large [2, 17]: 30
Crabgrass, Large plant response rating [2, 18]: 55
Crabgrass, Large plant response rating [2, 19]: 10
Plant response rating, Wheat [3, 12]: 0
Plant response rating, Wheat [3, 13]: 5
Plant response rating, Wheat [3, 14]: 5
Plant response rating, Wheat [3, 15]: 0
Plant response rating, Wheat [3, 16]: 5
Wheat plant response rating [3, 18]: 25
Plant response rating, Soybean (soybean (Glycine max); [12]): 0
Plant response rating, Soybean (soybean (Glycine max); [13]): 10
Plant response rating, Soybean (soybean (Glycine max); [14]): 10
Plant response rating, Soybean (soybean (Glycine max); [15]): 0
Plant response rating, Soybean (soybean (Glycine max); [16]): 5
Plant response rating, Soybean (soybean (Glycine max); [17]): 5
Soybean plant response rating (soybean (Glycine max); [18]): 5
Plant response rating, Nutsedge, Yellow [4, 12]: 20
Plant response rating, Nutsedge, Yellow [4, 13]: 60
Plant response rating, Nutsedge, Yellow [4, 14]: 75
Plant response rating, Nutsedge, Yellow [4, 15]: 15
Plant response rating, Nutsedge, Yellow [4, 16]: 70
Plant response rating, Nutsedge, Yellow [4, 17]: 75
Nutsedge, Yellow plant response rating [4, 18]: 75
Plant response rating, Barnyardgrass [5, 12]: 20
Plant response rating, Barnyardgrass [5, 13]: 35
Plant response rating, Barnyardgrass [5, 14]: 40
Plant response rating, Barnyardgrass [5, 15]: 5
Plant response rating, Barnyardgrass [5, 16]: 10
Plant response rating, Barnyardgrass [5, 17]: 30
Barnyardgrass plant response rating [5, 18]: 85
Barnyardgrass plant response rating [5, 19]: 20
Plant response rating, Foxtail, Giant [6, 12]: 20
Plant response rating, Foxtail, Giant [6, 13]: 60
Plant response rating, Foxtail, Giant [6, 14]: 75
Plant response rating, Foxtail, Giant [6, 15]: 30
Plant response rating, Foxtail, Giant [6, 16]: 75
Plant response rating, Foxtail, Giant [6, 17]: 85
Foxtail, Giant plant response rating [6, 18]: 90
Plant response rating, Waterhemp [7, 12]: 25
Plant response rating, Waterhemp [7, 13]: 80
Plant response rating, Waterhemp [7, 14]: 85
Plant response rating, Waterhemp [7, 15]: 75
Plant response rating, Waterhemp [7, 16]: 65
Plant response rating, Waterhemp [7, 17]: 75
Waterhemp plant response rating [7, 18]: 85
Plant response rating, Oilseed Rape [8, 12]: 0
Plant response rating, Oilseed Rape [8, 13]: 5
Plant response rating, Oilseed Rape [8, 14]: 30
Plant response rating, Oilseed Rape [8, 15]: 0
Plant response rating, Oilseed Rape [8, 16]: 10
Plant response rating, Oilseed Rape [8, 17]: 10
Oilseed Rape plant response rating [8, 18]: 35
Plant response rating, Galium [9, 12]: 90
Plant response rating, Galium [9, 13]: 95
Plant response rating, Galium [9, 14]: 95
Plant response rating, Galium [9, 17]: 95
Galium plant response rating [9, 18]: 95
Plant response rating, Lambsquarters [10, 12]: 75
Plant response rating, Lambsquarters [10, 13]: 70
Plant response rating, Lambsquarters [10, 14]: 100
Plant response rating, Lambsquarters [10, 15]: 70
Plant response rating, Lambsquarters [10, 16]: 85
Plant response rating, Lambsquarters [10, 17]: 85
Lambsquarters plant response rating [10, 18]: 100
Plant response rating, Johnsongrass [11, 12]: 0
Plant response rating, Johnsongrass [11, 13]: 0
Plant response rating, Johnsongrass [11, 14]: 10
Plant response rating, Johnsongrass [11, 15]: 0
Plant response rating, Johnsongrass [11, 16]: 0
Plant response rating, Johnsongrass [11, 17]: 0
Johnsongrass plant response rating [11, 18]: 0

CCCC(=O)Oc1c(C)nn(C)c(=O)c1-c1c(C)sc2ccc(C)cc12 [Compound 105]
Plant response rating, Ragweed [1, 12]: 90
Plant response rating, Ragweed [1, 13]: 98
Plant response rating, Ragweed [1, 14]: 100
Plant response rating, Ragweed [1, 15]: 90
Plant response rating, Ragweed [1, 16]: 90
Plant response rating, Ragweed [1, 17]: 98
Ragweed plant response rating [1, 18]: 100
Plant response rating, Crabgrass, Large [2, 12]: 20
Plant response rating, Crabgrass, Large [2, 13]: 20
Plant response rating, Crabgrass, Large [2, 14]: 30
Plant response rating, Crabgrass, Large [2, 15]: 20
Plant response rating, Crabgrass, Large [2, 16]: 50
Plant response rating, Crabgrass, Large [2, 17]: 75
Crabgrass, Large plant response rating [2, 18]: 80
Crabgrass, Large plant response rating [2, 19]: 30
Plant response rating, Wheat [3, 12]: 0
Plant response rating, Wheat [3, 13]: 5
Plant response rating, Wheat [3, 14]: 5
Plant response rating, Wheat [3, 15]: 0
Plant response rating, Wheat [3, 16]: 10
Plant response rating, Wheat [3, 17]: 10
Wheat plant response rating [3, 18]: 5
Plant response rating, Soybean (soybean (Glycine max); [12]): 5
Plant response rating, Soybean (soybean (Glycine max); [13]): 10
Plant response rating, Soybean (soybean (Glycine max); [14]): 40
Plant response rating, Soybean (soybean (Glycine max); [15]): 0
Plant response rating, Soybean (soybean (Glycine max); [16]): 0
Plant response rating, Soybean (soybean (Glycine max); [17]): 0
Soybean plant response rating (soybean (Glycine max); [18]): 0
Plant response rating, Nutsedge, Yellow [4, 12]: 55
Plant response rating, Nutsedge, Yellow [4, 13]: 75
Plant response rating, Nutsedge, Yellow [4, 14]: 90
Plant response rating, Nutsedge, Yellow [4, 15]: 40
Plant response rating, Nutsedge, Yellow [4, 16]: 45
Plant response rating, Nutsedge, Yellow [4, 17]: 40
Nutsedge, Yellow plant response rating [4, 18]: 85
Plant response rating, Barnyardgrass [5, 12]: 10
Plant response rating, Barnyardgrass [5, 13]: 25
Plant response rating, Barnyardgrass [5, 14]: 20
Plant response rating, Barnyardgrass [5, 15]: 0
Plant response rating, Barnyardgrass [5, 16]: 30
Plant response rating, Barnyardgrass [5, 17]: 60
Barnyardgrass plant response rating [5, 18]: 90
Barnyardgrass plant response rating [5, 19]: 25
Plant response rating, Foxtail, Giant [6, 12]: 40
Plant response rating, Foxtail, Giant [6, 13]: 75
Plant response rating, Foxtail, Giant [6, 14]: 85
Plant response rating, Foxtail, Giant [6, 15]: 60
Plant response rating, Foxtail, Giant [6, 16]: 80
Plant response rating, Foxtail, Giant [6, 17]: 90
Foxtail, Giant plant response rating [6, 18]: 100
Plant response rating, Waterhemp [7, 12]: 80
Plant response rating, Waterhemp [7, 13]: 100
Plant response rating, Waterhemp [7, 14]: 98
Plant response rating, Waterhemp [7, 15]: 90
Plant response rating, Waterhemp [7, 16]: 95
Plant response rating, Waterhemp [7, 17]: 100
Waterhemp plant response rating [7, 18]: 100
Plant response rating, Oilseed Rape [8, 12]: 5
Plant response rating, Oilseed Rape [8, 13]: 60
Plant response rating, Oilseed Rape [8, 14]: 75
Plant response rating, Oilseed Rape [8, 15]: 0
Plant response rating, Oilseed Rape [8, 16]: 5
Plant response rating, Oilseed Rape [8, 17]: 10
Oilseed Rape plant response rating [8, 18]: 10
Plant response rating, Galium [9, 12]: 95
Plant response rating, Galium [9, 13]: 95
Plant response rating, Galium [9, 14]: 100
Plant response rating, Galium [9, 15]: 85
Plant response rating, Galium [9, 16]: 90
Plant response rating, Galium [9, 17]: 95
Galium plant response rating [9, 18]: 98
Plant response rating, Lambsquarters [10, 12]: 85
Plant response rating, Lambsquarters [10, 13]: 100
Plant response rating, Lambsquarters [10, 14]: 100
Plant response rating, Lambsquarters [10, 15]: 95
Plant response rating, Lambsquarters [10, 16]: 85
Plant response rating, Lambsquarters [10, 17]: 90
Lambsquarters plant response rating [10, 18]: 95
Plant response rating, Johnsongrass [11, 12]: 5
Plant response rating, Johnsongrass [11, 13]: 0
Plant response rating, Johnsongrass [11, 14]: 0
Plant response rating, Johnsongrass [11, 15]: 10
Plant response rating, Johnsongrass [11, 16]: 20
Plant response rating, Johnsongrass [11, 17]: 20
Johnsongrass plant response rating [11, 18]: 60
